From patent publication US8445510B2, “Fused bicyclic kinase inhibitors” (OSI Pharmaceuticals, LLC, priority 2011, dated 2013)

Tests used:
Type in all cases: cell-based
[1] = test system: Karpas-299 cells; experiment: Karpas-299 cell proliferation assay (CellTiter-Glo); conditions: Homo sapiens, 72 h; Karpas-299 cell line (NPM-ALK); 3 days incubation; at least duplicate experiments; read-out: Prolif. IC50
[2] = target: c-MET (Homo sapiens, UniProt P08581); experiment: MET cell mechanistic assay (MKN45), phosphorylated MET ELISA; conditions: MKN45 cell line; inhibition of phosphorylated MET; 4 hours incubation; at least duplicate experiments; read-out: MET mech IC50
Description: The cellular activity of the compounds of the present invention against c-MET may be determined by the following procedure. MKN45 cells were plated in Falcon 3072 96-well plates in growth media (RPMI, 10% FBS, 1% L-glutamine) at a density of 5000 cells/well and incubated at 37° C., 5% CO2 overnight. The following day, one-tenth volume of a 10× concentration of compounds was added to the wells in a 6-point dilution series. The dilutions series was composed of an initial 1:5 dilution in DMSO, followed by a 1:10 dilution in growth media, for a final DMSO concentration on cells of 0.5%. Control wells were treated with 0.5% DMSO. The typical range of dilution was 10 μM to 3 nM. Once compound was added to the cells, plates were incubated for 4 hours at 37° C., 5% CO2. Plates were then washed in PBS, and lysed in triton-based lysis buffer. Lysates were transferred to a precoated capture plate made by Biosource (Cat # KHO0281). The phosphorylated MET levels were measured by incubating with a rabbit polyclonal antibody against phosphorylated MET ([pYpYpY1230/1234/1235]) followed by an anti-rabbit antibody conjugated to HRP. Signal was measured on a Wallac Victor plate reader at 450 nm. The DMSO signal of the control wells was defined as 100% and the percent of inhibition of phosphorylated MET was expressed as percent of control. IC50 values were determined from the percent of control data using a standard four-parameter model.
The IC50 values of exemplary compounds of the present invention determined in a MET cell mechanistic assay using the MKN45 cell line according to the procedures described herein in at least duplicate experiments are abbreviated as follows and are shown in Table 1: A, IC50≦0.05 μM; B, 0.05 μM<IC50≦0.2 μM; C, 0.2 μM<IC50≦1 μM; D, IC50>1 μM; ND, not determined. The Example # of Table 1 corresponds to the compound example number as illustrated in the Examples section.
Treatment of this cell line with a selective c-MET inhibitor led to induction of apoptosis and inhibition of proliferation, whereas non-MET-amplified cell lines were not affected [Smolen et al., Proc. Natl. Acad. Sci. USA, 103(7):2316-2321 (2006)]. This cell line is thus “driven” by c-MET, and antiproliferative effects correlate very well with the inhibition of c-MET phosphorylation so that the cell proliferation IC50, values can be used as surrogate for the c-MET cell mechanistic IC50, values. Under the assay conditions described herein, the IC50 values correlate nearly 1:1.

[3] = test system: MKN45 cells; experiment: MKN45 cell proliferation assay (CellTiter-Glo); conditions: Homo sapiens, MKN-45, 72 h; MKN45 cell line; 3 days incubation; at least duplicate experiments; read-out: Prolif. IC50

Chain of c-MET (P08581 25-1390): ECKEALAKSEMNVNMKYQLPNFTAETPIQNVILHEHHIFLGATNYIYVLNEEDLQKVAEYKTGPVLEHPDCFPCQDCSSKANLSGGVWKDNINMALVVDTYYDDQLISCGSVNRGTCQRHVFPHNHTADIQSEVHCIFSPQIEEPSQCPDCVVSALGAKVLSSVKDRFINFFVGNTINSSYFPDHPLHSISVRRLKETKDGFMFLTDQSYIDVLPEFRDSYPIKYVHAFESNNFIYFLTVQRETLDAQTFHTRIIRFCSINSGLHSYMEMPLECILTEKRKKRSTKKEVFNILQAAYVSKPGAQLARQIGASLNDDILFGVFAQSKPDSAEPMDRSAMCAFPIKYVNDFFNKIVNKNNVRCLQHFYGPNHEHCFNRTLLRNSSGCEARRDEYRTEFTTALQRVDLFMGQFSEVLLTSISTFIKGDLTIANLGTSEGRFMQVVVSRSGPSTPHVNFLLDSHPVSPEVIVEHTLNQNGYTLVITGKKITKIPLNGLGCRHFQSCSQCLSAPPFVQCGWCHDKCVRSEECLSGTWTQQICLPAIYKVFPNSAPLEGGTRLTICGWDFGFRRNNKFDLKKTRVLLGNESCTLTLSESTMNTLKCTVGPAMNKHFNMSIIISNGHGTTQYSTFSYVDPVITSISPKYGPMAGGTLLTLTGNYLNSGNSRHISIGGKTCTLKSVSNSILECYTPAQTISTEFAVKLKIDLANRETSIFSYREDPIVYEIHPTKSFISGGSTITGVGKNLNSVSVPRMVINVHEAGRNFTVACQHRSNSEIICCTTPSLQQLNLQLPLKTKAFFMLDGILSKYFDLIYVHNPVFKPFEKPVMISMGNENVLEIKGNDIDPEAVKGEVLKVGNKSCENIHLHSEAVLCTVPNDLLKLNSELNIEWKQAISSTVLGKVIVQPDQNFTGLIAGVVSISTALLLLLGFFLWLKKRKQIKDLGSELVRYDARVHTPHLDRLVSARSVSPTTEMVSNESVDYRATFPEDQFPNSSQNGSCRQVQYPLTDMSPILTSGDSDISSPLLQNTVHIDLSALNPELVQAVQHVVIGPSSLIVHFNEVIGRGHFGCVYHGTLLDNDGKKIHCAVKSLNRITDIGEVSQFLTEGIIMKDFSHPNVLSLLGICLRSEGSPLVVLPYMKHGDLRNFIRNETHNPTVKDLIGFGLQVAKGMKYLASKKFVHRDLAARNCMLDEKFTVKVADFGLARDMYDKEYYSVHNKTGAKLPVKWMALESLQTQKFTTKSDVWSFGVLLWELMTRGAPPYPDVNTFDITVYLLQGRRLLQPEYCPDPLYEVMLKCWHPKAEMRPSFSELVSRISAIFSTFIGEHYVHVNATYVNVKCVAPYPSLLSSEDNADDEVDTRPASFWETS

Row | SMILES | IC50 [1] [nM] | IC50 [2] [nM] | IC50 [3] [nM]
1 | COc1ccc(F)c(Cl)c1[C@@H](C)c1c[nH]c2ncc(-c3cn([C@H]4CC[C@H](O)CC4)nc3OC)cc12 [Example 99, trans-4-(4-{3-[(1S)-1-(2-chloro-3-fluoro-6-methoxyphenyl)ethyl]-1H-pyrrolo[2,3-b]pyridin-5-yl}-3-methoxy-1H-pyrazol-1-yl)cyclohexanol] | 50 to 200 | ≤ 50 | ≤ 50
2 | COc1ccc(F)c(Cl)c1[C@@H](CF)c1c[nH]c2ncc(-c3cnn([C@H]4CC[C@H](O)CC4)c3C)cc12 [Example 121, trans-4-(4-{3-[(1S)-1-(2-Chloro-3-fluoro-6-methoxyphenyl)-2-fluoroethyl]-1H-pyrrolo[2,3-b]pyridin-5-yl}-5-methyl-1H-pyrazol-1-yl)cyclohexanol] | ≤ 50 | ≤ 50 | ≤ 50
3 | Cc1c(-c2cnc3[nH]cc([C@H](C)c4c(OC(F)F)ccc(F)c4Cl)c3c2)cnn1C1CCNCC1 [Example 96, 3-{(1S)-1-[2-Chloro-6-(difluoromethoxy)-3-fluorophenyl]ethyl}-5-[5-methyl-1-(piperidin-4-yl)-1H-pyrazol-4-yl]-1H-pyrrolo[2,3-b]pyridine] | ≤ 50 | ≤ 50 | ≤ 50
4 | C[C@H](c1c(OC(F)F)ccc(F)c1Cl)c1c[nH]c2ncc(-c3cnc(N4CCC(O)CC4)n3C)cc12 [Example 125, 1-[5-(3-{(1S)-1-[2-Chloro-6-(difluoromethoxy)-3-fluorophenyl]ethyl}-1H-pyrrolo[2,3-b]pyridin-5-yl)-1-methyl-1H-imidazol-2-yl]piperidin-4-ol] | ≤ 50 | ≤ 50 | ≤ 50

Second part, the molecule after the results:

Row | IC50 [1] [nM] | IC50 [2] [nM] | IC50 [3] [nM] | SMILES
5 | ≤ 50 | ≤ 50 | ≤ 50 | CCOc1ccc(F)c(Cl)c1[C@@H](C)c1c[nH]c2ncc(-c3cnn([C@H]4CC[C@H](O)CC4)c3C)cc12 [Example 103, trans-4-(4-{3-[(1S)-1-(2-Chloro-6-ethoxy-3-fluorophenyl)ethyl]-1H-pyrrolo[2,3-b]pyridin-5-yl}-5-methyl-1H-pyrazol-1-yl)cyclohexanol]
6 | ≤ 50 | ≤ 50 | ≤ 50 | Cc1c(-c2cnc3[nH]cc([C@H](C)c4c(OC(F)F)ccc(F)c4Cl)c3c2)cnn1[C@H]1CC[C@H](O)CC1 [Example 74, trans-4-[4-(3-{(1S)-1-[2-Chloro-6-(difluoromethoxy)-3-fluorophenyl]ethyl}-1H-pyrrolo[2,3-b]pyridin-5-yl)-5-methyl-1H-pyrazol-1-yl]cyclohexanol]
7 | 50 to 200 | 200 to 1000 | 200 to 1000 | Cc1c(-c2cnc3[nH]cc([C@@H](CF)c4c(OC(F)F)ccc(F)c4Cl)c3c2)cnn1[C@H]1CC[C@H](O)CC1 [Example 123, trans-4-[4-(3-{(1R)-1-[2-chloro-6-(difluoromethoxy)-3-fluorophenyl]-2-fluoroethyl}-1H-pyrrolo[2,3-b]pyridin-5-yl)-5-methyl-1H-pyrazol-1-yl]cyclohexanol]
